Blank lines part the entries; values can stand above or below the molecule they belong to.
Legend:
[1] = target: uPAR-bound u-PA (Homo sapiens, UniProt P00749); format: cell-based; conditions: peptide 0.5 mg/ml 30 minutes preincubation; PAI-1 0.9 or 4.5 nM
Method: U937 cells were grown in suspension in RPMI 1640 medium supplemented with 5% heat-inactivated fetal calf serum. PMA-stimulation of U937 cells was performed at a cell density of […] cells/ml with 150 nM PMA for 4 days. The adherent cell population was harvested with a rubber scraper and resuspended in PBS. […] The effect of PAI's on the activity of cell-bound u-PA was determined by the addition of varying concentrations of PAI-1 (0.18-18.4 nM) or PAI-2 (1.13-56.7 nM) to the incubations at the same time as the addition of plasminogen. Curves were then constructed of plasmin concentration against time. […] [pln]∞ was calculated from the relationship: [[…]]0) equation.2 where Δ[pln]0 is the initial rate of plasmin generation which was determined in control incubations in the absence of inhibitors. […] Association rate constants (second-order rate constants) were calculated from the slope of the line of double reciprocal plots of kapp against inhibitor concentration.

[2] = system: u-PAR mRNA; test: Northern blot of u-PAR mRNA in A549 cells; format: cell-based, human; conditions: 48 hours, PMA 150 nM, mEGF 20 ng/ml, TGF-β1 7.5 ng/ml, dexamethasone 10^−6 M
Method: (§1) The cells were seeded at 0.5×10^6/ml in DMEM and grown to confluence, washed in PBS^+ and kept under serum-free conditions for 48 hours followed by no additions (1, 6), by addition of Dex (10^−6M) (2, 7) PMA (150 nM) (3, 8) mEGF (20 ng/ml) (4, 9) and TGF-β1, (7.5 ng/ml) (5, 10) for 48 hours. After incubation, both the adherent and the non-adherent cells were collected, pooled, and total RNA was isolated as described in Materials and Methods. For the Northern blot analyses, 30 μg of total RNA were electrophoresed in 1.5% agarose gels under denaturing conditions and blotted onto a nitrocellulose filter. The filters were hybridized to a random primed labeled u-PAR cDNA probe. The positions of the ribosomal RNA in the Northern are indicated to the left.
(§2) The human histiocytic lymphoma cell line U937 (American Type Culture Collection (ATCC), CRL 1593) was obtained from Dr. A. Fattorssi (Research Lab. of Aeronautica Militare, Rome, Italy) and cultured in RPMI 1640 medium with 10% heat inactivated fetal calf serum and 2 mM L-glutamine at a density of 0.5×10^6 cells/ml at the onset of the experiment. The medium was supplemented with 100 units/ml of penicillin and 25 ug/ml streptomycin. The human rhabdomyosarcoma (RD) and adenocarcinoma (A549) cell lines (ATCC CCL 136 and ATCC CCl 185, respectively) were obtained from Flow laboratories, Irvine, U.K., and kept in Dulbecco's modified Eagle's medium supplemented with 10% fetal calf serum until confluency, as described earlier (Lund et al., 1988). The cell lines were tested for and found free from Mycoplasma infection. PMA and the other compounds were present during different time periods and in varying concentrations, as indicated for each experiment. The adherent cells were released by a rubber policeman, and harvested for RNA analysis as described (Mayer et al., 1988).
(§3) Total cellular RNA was isolated from the cells as described by Chomczynsky and Sacchi (1987). The RNA was analyzed by hybridizing Northern blots as described (Lund et al., 1987), except that random primed labelled plasmid probes were used. […]

[3] = system: u-PAR mRNA; test: Northern blot of u-PAR mRNA in RD cells; format: cell-based, human; conditions: 48 hours, PMA 150 nM, mEGF 20 ng/ml, TGF-β1 7.5 ng/ml, dexamethasone 10^−6 M
Method: as §1, §2, §3

[4] = system: U937 cells; test: Fate of receptor-bound ligands on U937 cells (internalization and degradation); format: cell-based, human
[5] = target: T1, u-PAR (Homo sapiens, UniProt Q03405); test: Chemical cross-linking of 125I-ATF to purified u-PAR; format: binding; conditions: unlabelled reagent 100 nM, u-PAR approx. 1 nM, 125I-ATF approx. 1 nM
Method: B) Affinity column eluate was diluted to yield an approximate concentration of u-PAR of 1 nM during the assay. The samples were preincubated alone (lane 2) or in the presence of the following unlabelled reagents at a concentration of 100 nM: bovine serum albumin (lane 3), t-PA (lane 4), plasminogen (lane 5), murine epidermal growth factor (lane 6), ATF (lane 7), active 54 kD u-PA (lane 8), DFP-inactivated 54 kD u-PA (lane 9). After preincubation for 15 min at room temperature, ^125I-labelled ATF (approximately 1 nM) was added, followed by incubation for 1 hour at 4° C. After incubation, chemical cross-linking was performed with DSS, after which the samples were analyzed by SDS-PACE on a 6-16% gradient gel under non-reducing conditions and autoradiography. […] Electrophoretic mobilities of molecular weight standard proteins are inducated (kD).
Cross-linking of u-PAR in complex mixtures or purified fractions to ^125I-labelled ATF was performed as described for solubilized receptor (Nielsen et al., 1988), except that 2 mM disuccinimidylsuberate (DSS) was used for cross-linking. Cross-linking of purified u-PAR to DFP-treated u-PA for analysis by SDS-PAGE and silver-staining was performed in the same manner, except that non-labelled DFP-treated u-PA was used as the ligand.

[6] = system: u-PAR mRNA; test: Northern blot of u-PAR mRNA in U937 cells; format: cell-based, human; conditions: 150 nM PMA, time course
Method: The cells were seeded at 0.5×10^6/ml in RPMI 1640 medium containing 10% FCS, and incubated with 150 nM PMA for the indicated number of hours. After the incubation both the adherent and the non-adherent cells were collected, pooled, and total RNA was isolated as described in Materials and Methods. For the Northern blot analyses, 30 μg of total RNA were electrophoresed in 1.5% agarose gels under denaturing conditions and blotted onto a nitrocellulose filter. The filters were hybridized to a random primed labelled u-PAR cDNA probe (A), or a β-actin cDNA probe (B). The positions of the ribosomal RNA in the Northern blot are indicated to the left.
The human histiocytic lymphoma cell line U937 (American Type Culture Collection (ATCC), CRL 1593) was obtained from Dr. A. Fattorssi (Research Lab. of Aeronautica Militare, Rome, Italy) and cultured in RPMI 1640 medium with 10% heat inactivated fetal calf serum and 2 mM L-glutamine at a density of 0.5×10^6 cells/ml at the onset of the experiment. The medium was supplemented with 100 units/ml of penicillin and 25 ug/ml streptomycin. […]
as §3

[7] = system: u-PAR; test: u-PAR protein level in U937 cells by cross-linking of detergent phase to 125I-ATF; format: cell-based, human; conditions: increasing time of treatment, PMA 150 nM, dibuturyl cAMP 1 mM
[8] = target: T1, u-PAR; test: Release of 125I-labelled DFP-u-PA from PMA-stimulated U937 cells by phospholipases; format: cell-based; conditions: phospholipases >5 μg/ml, compared to blind sample
[9] = system: HT-1080 cells; test: Plasmin release from plasmin-loaded HT-1080 cells; format: cell-based, human
Method: FIG. 24. Plasmin release from HT-1080 cells into serum-free and serum-containing media. Confluent layers of HT-1080 cells were first loaded with plasmin by incubation for 1 hour at 37° C. in serum-free MEM medium (0.5 ml) containing human plasmin (0-5 μg/ml). After rinsing the cell layers three times, they were incubated for 2 hours at 37° C. with either serum-free medium (∘ - - - ∘), medium containing 10% heat-inactivated and plasminogen-depleted fetal calf serum (● - - - ●), or the latter with tranexamic acid (100 μM) (▪ - - - ▪). Plasmin was then assayed in the cell-bound fraction (A) and the media (B). At the time of transfer to new media, there was approximately 28 ng of plasmin bound to the cells from the pretreatment with 2.5 μg of plasmin/well.
In the Examples concerning plasmin binding to cells from medium, human plasmin (approximately 18 CU/mg; Kabi Diagnostica, Stockholm, Sweden) was added to the cultures at final concentrations of 0-5 μg/ml. The cells were incubated for 3 hours at 37° C. before assay of cell-bound and supernatant plasmin (see below). For plasmin release experiments, cells were loaded for 1 hour at 37° C. with 0-5 μg/ml plasmin in serum-free medium, then rinsed three times with MEM.
Plasmin bound to the cell layer was recovered and assayed as follows. After harvest of culture medium, the cells were rinsed three times with PBS (plasmin assays of further rinses were negative); then the bound plasmin was specifically eluted (Miles, L. A., and E. F. Plow, “Binding and activation of plasminogen on the platelet surface”, J. Biol. Chem. 260: 4303-4311, 1985) with a solution of 1 mM tranexamic acid in the same rinsing solution (150 μl/well). Plasmin activity was assayed in eluate samples (50 μl) as above with an incubation time of 3 hours at 37° C. Tranexamic acid at 1 mM had no effect on the thioesterase activity of plasmin in these assays.

[10] = system: cultured cells; conditions: plasmin, some cell types (Burtin and Fondaneche, 1988); cited from earlier work

Molecule: Gly-Arg-Gly-Asp-Ser (GRGDS; printed: Gly-Arg-Gly-Asp-Ser)
Rates of inhibition of cell-bound u-PA by PAI-1 in the presence or absence of the peptide [1]: the same

Molecule: TGF-β1: porcine transforming growth factor β-type 1
u-PAR mRNA level [2]: increased
u-PAR mRNA level [3]: increased

Molecule: CCN(CC)CCCC(C)Nc1ccnc2cc(Cl)ccc12 (stereo not shown) [chloroquine]
Degradation of u-PA:PAI-1 ligand [4]: 20%

Competition for binding and cross-linking of 125I-labelled ATF to purified u-PAR [5]: no competition
Molecule: t-PA: tissue-type plasminogen activator

Molecule: CCCCCCCCCCCCCC(=O)O[C@@H]1[C@@H](C)[C@@]2(O)[C@@H](C=C(CO)C[C@]3(O)C(=O)C(C)=C[C@@H]23)[C@@H]2C(C)(C)[C@]12OC(C)=O [PMA, Phorbol 12-myristate 13-acetate]
u-PAR mRNA level [6]: maximal effect after 24 hours
u-PAR mRNA level [2]: increased
u-PAR mRNA level [3]: increased
u-PAR protein level (signal of 125I-ATF cross-linked to u-PAR) [7]: increase in the strength of signal

Competition for binding and cross-linking of 125I-labelled ATF to purified u-PAR [5]: no competition
Molecule: epidermal growth factor: murine epidermal growth factor
u-PAR mRNA level [2]: increased
u-PAR mRNA level [3]: increased

Molecule: Trypsin
Liberation of 125I-labelled DFP-u-PA from the cell surface [8]: efficiently released all cell surface associated radioactivity

Competition for binding and cross-linking of 125I-labelled ATF to purified u-PAR [5]: no competition
Molecule: bovine serum albumin: unrelated control protein

B1: plasmin: human plasmin (Kabi Diagnostica) (protein, UniProt P00747 20-580; P00747 581-810, looked up)
Plasmin heavy chain A: EPLDDYVNTQGASLFSVTKKQLGAGSIEECAAKCEEDEEFTCRAFQYHSKEQQCVIMAENRKSSIIIRMRDVVLFEKKVYLSECKTGNGKNYRGTMSKTKNGITCQKWSSTSPHRPRFSPATHPSEGLEENYCRNPDNDPQGPWCYTTDPEKRYDYCDILECEEECMHCSGENYDGKISKTMSGLECQAWDSQSPHAHGYIPSKFPNKNLKKNYCRNPDRELRPWCFTTDPNKRWELCDIPRCTTPPPSSGPTYQCLKGTGENYRGNVAVTVSGHTCQHWSAQTPHTHNRTPENFPCKNLDENYCRNPDGKRAPWCHTTNSQVRWEYCKIPSCDSSPVSTEQLAPTAPPELTPVVQDCYHGDGQSYRGTSSTTTTGKKCQSWSSMTPHRHQKTPENYPNAGLTMNYCRNPDADKGPWCFTTDPSVRWEYCNLKKCSGTEASVVAPPPVVLLPDVETPSEEDCMFGNGKGYRGKRATTVTGTPCQDWAAQEPHRHSIFTPETNPRAGLEKNYCRNPDGDVGGPWCYTTNPRKLYDYCDVPQCAAPSFDCGKPQVEPKKCPGR
Plasmin light chain B: VVGGCVAHPHSWPWQVSLRTRFGMHFCGGTLISPEWVLTAAHCLEKSPRPSSYKVILGAHQEVNLEPHVQEIEVSRLFLEPTRKDIALLKLSSPAVITDKVIPACLPSPNYVVADRTECFITGWGETQGTFGAGLLKEAQLPVIENKVCNRYEFLNGRVQSTELCAGHLAGGTDSCQGDSGGPLVCFEKDKYILQGVTSWGLGCARPNKPGVYVRVSRFVTWIEGVMRNN
modifications: plasmin
Plasmin activity recovered from the cells ([9]; 2 hours 37° C., 10% serum-containing medium): 40%
Plasmin activity remaining bound to cells ([9]; 2 hours 37° C., fresh serum-free medium): approximately 40%
Plasmin activity detected in the medium ([9]; serum-containing medium): about 11%
Plasmin activity detected in the medium ([9]; serum-free medium): 60%
Kd [10]: 50 nM

Reference: US20030027981A1, “Urokinase-type plasminogen activator receptor” (priority 1989, published 2003)
